Structures can show the parent of a compound that is named as a salt. Where two headings read alike, the source gives them in different places.
Columns and labels:
[1] = molecular target: Rabbit Reticulocyte Lysate (eukaryotic protein synthesis); experiment: Rabbit reticulocyte lysate luciferase assay (inhibition of eukaryotic protein synthesis); format: biochemical; details: read-out: Rabbit reticulocyte IC50 (μM/% inhib.)
Procedure, shortened: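 Nuclease-treated rabbit reticulocyte lysate translating luciferase control RNA, with complete amino acids, was incubated at 30° C. for 90 minutes with 2-fold serial compound dilutions. Luminescence was measured after adding luciferase reagent. % inhibition was relative to water controls, with no-RNA wells as background.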

[2] = system: E. coli S30 extract (bacterial protein synthesis); experiment: E. coli S30 extract coupled transcription-translation luciferase assay (inhibition of bacterial protein synthesis); format: biochemical; details: read-out: S30 IC50 (μM/% inhib.)
Procedure, shortened: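 Cell-free coupled transcription-translation in E. coli S30 circular-DNA extract, with pBESTluc plasmid as template and complete amino acid mix. Eight 2-fold compound dilutions were incubated with the extract 1 h at 37 °C, chilled, then luciferase luminescence was read. % inhibition was taken relative to no-inhibitor wells; no-DNA wells gave background.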

E. faecalis (Ef) = experiment: Broth microdilution minimum inhibitory concentration (MIC); format: cell-based; details: for MIC: Enterococcus faecalis, read-out: Ef + bicarb MIC
Procedure, shortened: (§1)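 CLSI broth microdilution with 8 two-fold compound dilutions in CAMHB, or CAMHB plus sodium bicarbonate (6.25 or 25 mM final) or heat-inactivated human serum (0–50%). Inoculum 5×10^4 CFU/well from 0.5 McFarland cultures grown at 35±2° C; tested in triplicate.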

E. coli (Ec) = experiment: as above; format: cell-based; details: for MIC: Escherichia coli, read-out: E. coli + bicarb MIC
Procedure, shortened: as §1

A. baumannii (Ab) = experiment: as above; format: cell-based; details: for MIC: Acinetobacter baumannii, read-out: Ab + bicarb MIC
Procedure, shortened: as §1

P. aeruginosa (Pa) = experiment: as above; format: cell-based; details: for MIC: Pseudomonas aeruginosa, read-out: Pa MIC + bicarb
Procedure, shortened: as §1

S. aureus (Sa) = experiment: as above; format: cell-based; details: for MIC: Staphylococcus aureus, read-out: Sa + bicarb MIC
Procedure, shortened: as §1

[3] = class by IC50 or % inhibition @ 1 μM
[4] = E. faecalis, growth medium supplemented with sodium bicarbonate
[5] = E. coli, growth medium supplemented with sodium bicarbonate
[6] = A. baumannii, growth medium supplemented with sodium bicarbonate
[7] = P. aeruginosa, growth medium supplemented with sodium bicarbonate
[8] = S. aureus, growth medium supplemented with sodium bicarbonate
[9] = E. faecalis, growth medium with sodium bicarbonate
[10] = E. coli, growth medium with sodium bicarbonate
[11] = A. baumannii, growth medium with sodium bicarbonate
[12] = P. aeruginosa, growth medium with sodium bicarbonate
[13] = S. aureus, growth medium with sodium bicarbonate

Row | SMILES | IC50 [1, 3] [µM] | IC50 [2, 3] [µM] | MIC (E. faecalis (Ef); [4]) [µg/mL] | MIC (E. coli (Ec); [5]) [µg/mL] | MIC (A. baumannii (Ab); [6]) [µg/mL] | MIC (P. aeruginosa (Pa); [7]) [µg/mL] | MIC (S. aureus (Sa); [8]) [µg/mL] | MIC (E. faecalis (Ef); [9]) [µg/mL] | MIC (E. coli (Ec); [10]) [µg/mL] | MIC (A. baumannii (Ab); [11]) [µg/mL] | MIC (P. aeruginosa (Pa); [12]) [µg/mL] | MIC (S. aureus (Sa); [13]) [µg/mL] | other results
1 | CCCN(Cc1ccc(-n2ccc(NC(=O)N3CCN(C(=O)C(C)(C)N)CC3)nc2=O)cc1)[C@H]1CC[C@H](N)CC1 [Compound 131] | > 1 | < 0.5 | < 8 | < 8 | < 8 | 8 to 32 | < 8 | – | – | – | – | – | –
2 | NC1CCN(Cc2ccc(-n3ccc(NC(=O)N4C[C@H]5C[C@@H](N)C[C@H]5C4)nc3=O)cc2)CC1 [Compound 295, trifluoroacetate salt] | > 1 | > 1 | – | – | – | – | – | – | – | – | – | – | MIC (E. faecalis (Ef)): > 32 µg/mL; MIC (E. coli (Ec)): > 32 µg/mL; MIC (A. baumannii (Ab)): > 32 µg/mL; MIC (P. aeruginosa (Pa)): > 32 µg/mL; MIC (S. aureus (Sa)): > 32 µg/mL
3 | CC(C)(N)C(=O)N1CCN(C(=O)Nc2ccn(-c3ccc(CN4CCC(N)CC4)cc3)c(=O)n2)C(CO)C1 (centres unmarked) [Compound 62] | > 1 | < 0.5 | > 32 | < 8 | > 32 | > 32 | > 32 | – | – | – | – | – | –
4 | CC(C)(N)C(=O)N1CCN(C(=O)Nc2ccn(-c3ccc(CCN4CCC(N)CC4)cc3)c(=O)n2)CC1 [Compound 198] | > 1 | < 0.5 | – | – | – | – | – | 8 to 32 | < 8 | > 32 | > 32 | 8 to 32 | –
5 | CCN(C[C@H]1C[C@H](N)C1)C(C)Cc1ccc(-n2ccc(NC(=O)N3CCN(C(=O)C(C)(C)N)CC3)nc2=O)cc1 (some centres unmarked) [Compound 158] | > 1 | < 0.5 | < 8 | < 8 | > 32 | 8 to 32 | < 8 | – | – | – | – | – | –
6 | CC(Cc1ccc(-n2ccc(NC(=O)N3CCN(C(=O)C(C)(C)N)CC3)nc2=O)cc1)N(C)C[C@H]1CCC[C@H](N)C1 (some centres unmarked) [Compound 279] | > 1 | > 1 | – | – | – | – | – | 8 to 32 | < 8 | > 32 | > 32 | < 8 | –
7 | CO[C@H]1C[C@@H](NCc2ccc(-n3ccc(NC(=O)N4CCN(C(=O)C(C)(C)N)CC4)nc3=O)cc2)CC[C@@H]1N [Compound 339, hydrochloride salt] | > 1 | < 0.5 | – | – | – | – | – | – | – | – | – | – | MIC (E. faecalis (Ef)): > 32 µg/mL; MIC (E. coli (Ec)): < 8 µg/mL; MIC (A. baumannii (Ab)): > 32 µg/mL; MIC (P. aeruginosa (Pa)): > 32 µg/mL; MIC (S. aureus (Sa)): 8 to 32 µg/mL
8 | CC(C)(N)C(=O)N1CCN(C(=O)Nc2ccn(-c3ccc(CCN[C@H]4CC[C@@H](N)CC4)cc3)c(=O)n2)CC1 [Compound 179] | > 1 | < 0.5 | – | – | – | – | – | 8 to 32 | < 8 | > 32 | > 32 | < 8 | –
9 | Cc1cc(-n2ccc(NC(=O)N3CCN(C(=O)C(C)(C)N)CC3)nc2=O)ccc1CN(CC1CC1)C1CCC(N)CC1 (centres unmarked) [Compound 270] | > 1 | < 0.5 | – | – | – | – | – | < 8 | < 8 | < 8 | 8 to 32 | < 8 | –
10 | CN(Cc1ccc(-n2ccc(NC(=O)N3CCN(C(=O)C(C)(C)N)CC3)nc2=O)cc1)[C@H]1CC[C@H](N)C1 [Compound 124] | > 1 | < 0.5 | < 8 | < 8 | > 32 | > 32 | < 8 | – | – | – | – | – | –
11 | CC(C)(N)C(=O)N1CCN(C(=O)Nc2ccn(-c3ccc(CN4CC[C@H](CN)C4)cc3)c(=O)n2)CC1 [Compound 242] | > 1 | < 0.5 | – | – | – | – | – | 8 to 32 | < 8 | > 32 | > 32 | < 8 | –
12 | CC(C)(N)C(=O)N1CCN(C(=O)Nc2ccn(-c3ccc(CN4CCC(N)C(C)(C)C4)cc3)c(=O)n2)CC1 (centres unmarked) [Compound 254] | > 1 | 0.5 to 1 | – | – | – | – | – | < 8 | < 8 | < 8 | > 32 | < 8 | –
13 | CC(C)(N)C(=O)N1CCN(C(=O)Nc2ccn(-c3ccc(CN4CC(N5CC(N)C5)C4)cc3)c(=O)n2)CC1 [Compound 380] | – | – | – | – | – | – | – | 8 to 32 | < 8 | > 32 | > 32 | < 8 | IC50 ([1]; % inhibition @ 1 μM): > 1 µM; IC50 ([2]; % inhibition @ 1 μM): < 0.5 µM
14 | CCC(N)C1CCCN(CCc2ccc(-n3ccc(NC(=O)N4CCN(C(=O)C(C)(C)N)CC4)nc3=O)cc2)C1 (centres unmarked) [Compound 23] | > 1 | > 1 | > 32 | < 8 | > 32 | > 32 | 8 to 32 | – | – | – | – | – | –
15 | CC(C)(N)C(=O)N1CCN(C(=O)Nc2ccn(-c3ccc(CN4CC(O)(CCN)C4)cc3)c(=O)n2)CC1 [Compound 205] | > 1 | < 0.5 | – | – | – | – | – | > 32 | < 8 | > 32 | > 32 | 8 to 32 | –
16 | CC(C)(N)C(=O)N1CCN(C(=O)Nc2ccn(-c3ccc(CN4CC[C@@H](N)[C@H](CO)C4)cc3)c(=O)n2)CC1 [Compound 227] | > 1 | > 1 | – | – | – | – | – | > 32 | 8 to 32 | > 32 | > 32 | > 32 | –
17 | CC(C)(N)C(=O)N1CCN(C(=O)Nc2ccn(-c3ccc(CNCC4CC(N)C4)cc3)c(=O)n2)CC1 (centres unmarked) [Compound 126] | > 1 | < 0.5 | > 32 | < 8 | > 32 | > 32 | 8 to 32 | – | – | – | – | – | –
18 | CCN(Cc1ccc(-n2ccc(NC(=O)N3CCN(C(=O)C(C)(C)N)C[C@H]3C)nc2=O)cc1)C1CCC(N)CC1 (some centres unmarked) [Compound 275] | > 1 | < 0.5 | – | – | – | – | – | < 8 | < 8 | < 8 | 8 to 32 | < 8 | –
19 | CC(C)(N)C(=O)N1CCN(C(=O)Nc2ccn(-c3ccc(CN(CCO)[C@H]4CC[C@H](N)CC4)cc3)c(=O)n2)CC1 [Compound 132] | > 1 | < 0.5 | > 32 | < 8 | > 32 | > 32 | < 8 | – | – | – | – | – | –
20 | CCN(Cc1ccc(-n2ccc(NC(=O)N3CCN(C(=O)C(C)(C)N)CC3)nc2=O)cc1C)C1CCC(N)CC1 (centres unmarked) [Compound 285] | > 1 | < 0.5 | – | – | – | – | – | < 8 | < 8 | < 8 | 8 to 32 | < 8 | –
21 | CCN(C(C)Cc1ccc(-n2ccc(NC(=O)N3CCN(C(=O)C(C)(C)N)CC3)nc2=O)cc1)C1CCC(N)CC1 (centres unmarked) [Compound 282] | > 1 | > 1 | – | – | – | – | – | – | – | – | – | – | Ef + bicarb MIC (E. faecalis (Ef); [9]): + (An MIC value (μg/mL) that is 32 μg/mL or greater); E. coli + bicarb MIC (E. coli (Ec); [10]): +++ (An MIC value (μg/mL) that is less than 8 μg/mL); Ab + bicarb MIC (A. baumannii (Ab); [11]): + (An MIC value (μg/mL) that is 32 μg/mL or greater); Pa MIC + bicarb (P. aeruginosa (Pa); [12]): + (An MIC value (μg/mL) that is 32 μg/mL or greater); Sa + bicarb MIC (S. aureus (Sa); [13]): +++ (An MIC value (μg/mL) that is less than 8 μg/mL)
22 | CC(Cc1ccc(-n2ccc(NC(=O)N3CCN(C(=O)C(C)(C)N)CC3)nc2=O)cc1)NC[C@@H]1CCC[C@@H](N)C1 (mixture of isomers) [Compound 155] | > 1 | > 1 | > 32 | < 8 | > 32 | > 32 | 8 to 32 | – | – | – | – | – | –
23 | CCN(Cc1ccc(-n2ccc(NC(=O)N3CCN(C(=O)[C@@](C)(N)CO)CC3)nc2=O)cc1)C1CCC(N)CC1 (some centres unmarked) [Compound 287] | > 1 | < 0.5 | – | – | – | – | – | < 8 | < 8 | > 32 | 8 to 32 | < 8 | –

Source: patent US12503452B2 (Curza Global, LLC, priority 2019, dated 2025)
